In publication PMC10247784, “Physiological activation of human and mouse bitter taste receptors by bile acids” (Communications Biology, 2023):
Where “and” joins values, the source holds several entries; their conditions need not be identical. Identical values can stand only once.

Biological target: T1, human TAS2R1 (Homo sapiens, UniProt Q9NYW7)
T1 construct: expressed in transfected cells; host or cells: HEK293T-Gα16gust44
T1 sequence (Q9NYW7 1-299): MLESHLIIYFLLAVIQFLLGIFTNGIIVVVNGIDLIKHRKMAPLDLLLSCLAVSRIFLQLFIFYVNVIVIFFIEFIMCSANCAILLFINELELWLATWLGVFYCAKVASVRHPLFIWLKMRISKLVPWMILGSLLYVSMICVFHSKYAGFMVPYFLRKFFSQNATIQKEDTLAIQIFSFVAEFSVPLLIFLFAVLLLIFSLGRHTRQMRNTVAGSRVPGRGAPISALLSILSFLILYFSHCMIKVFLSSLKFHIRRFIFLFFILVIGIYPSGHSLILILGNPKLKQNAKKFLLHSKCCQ
Test: Calcium imaging assay (FLIPR), HEK293T-Gα16gust44 cells transfected with human TAS2R1
Assay type: cell-based
How it was run: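 HEK293T-Gα16gust44 cells transiently transfected with the bitter-taste receptor, loaded next day with Fluo-4-AM plus 2.5 mM probenecid, and challenged with bile acids on FLIPR Tetra. Signals mock-subtracted, expressed as ΔF/F vs buffer.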

- Efficacy = maximal amplitude (ΔF/F) (TAS2R1, bile acids, mean): 0.1201
- Efficacy (maximal amplitude ΔF/F), individual data points (TAS2R1, bile acids, single replicates, listed as UDCA): 0.1146 and 0.1323 and 0.1134
- RLU (Time 0 s): 0 RLU
- RLU (Time 2.015 s): -1.909 RLU
- RLU (Time 4.015 s): -10.1979 RLU
- RLU (Time 6.015 s): -25.0303 RLU
- RLU (Time 8.015 s): -6.66 RLU
- RLU (Time 12.015 s): -0.9118 RLU
- RLU (Time 14.015 s): -27.1256 RLU
- RLU (Time 16.015 s): -36.3442 RLU
- RLU (Time 18.015 s): -16.5405 RLU
- RLU (Time 18.796 s): -5.241 RLU
- RLU (Time 20.796 s): -5.4345 RLU
- RLU (Time 22.796 s): -14.9172 RLU
- RLU (Time 24.796 s): 111.581 RLU
- RLU (Time 26.796 s): 220.014 RLU
- RLU (Time 28.796 s): 332.008 RLU
- RLU (Time 30.796 s): 471.987 RLU
- RLU (Time 32.796 s): 554.696 RLU
- RLU (Time 34.796 s): 591.628 RLU
- RLU (Time 36.796 s): 614.691 RLU
- RLU (Time 38.796 s): 661.973 RLU
- RLU (Time 40.796 s): 688.451 RLU
- RLU (Time 42.796 s): 682.803 RLU
- RLU (Time 44.796 s): 694.821 RLU
- RLU (Time 46.796 s): 713.853 RLU
- RLU (Time 48.796 s): 712.245 RLU
- RLU (Time 50.796 s): 701.71 RLU
- RLU (Time 52.796 s): 706.484 RLU
- RLU (Time 54.796 s): 693.141 RLU
- RLU (Time 56.796 s): 703.514 RLU
- RLU (Time 58.796 s): 690.888 RLU
- RLU (Time 60.796 s): 687.968 RLU
- RLU (Time 62.796 s): 660.683 RLU
- RLU (Time 64.796 s): 647.003 RLU
- RLU (Time 66.796 s): 672.518 RLU
- RLU (Time 68.796 s): 641.326 RLU
- RLU (Time 70.796 s): 644.562 RLU
- RLU (Time 72.796 s): 618.535 RLU
- RLU (Time 74.796 s): 611.038 RLU
- RLU (Time 76.796 s): 596.187 RLU
- RLU (Time 78.796 s): 593.169 RLU
- RLU (Time 80.796 s): 594.173 RLU
- RLU (Time 82.796 s): 573.074 RLU
- RLU (Time 84.796 s): 565.693 RLU
- RLU (Time 86.796 s): 545.003 RLU
- RLU (Time 88.796 s): 536.557 RLU
- RLU (Time 90.796 s): 528.103 RLU
- RLU (Time 92.796 s): 490.474 RLU
- RLU (Time 94.796 s): 507.179 RLU
- RLU (Time 96.796 s): 484.826 RLU
- RLU (Time 98.796 s): 487.253 RLU
- RLU (Time 100.796 s): 484.348 RLU
- RLU (Time 102.796 s): 464.491 RLU
- RLU (Time 104.796 s): 467.659 RLU
- RLU (Time 106.796 s): 432.725 RLU
- RLU (Time 108.796 s): 406.747 RLU
- RLU (Time 110.796 s): 379.699 RLU
- RLU (Time 112.796 s): 357.544 RLU
- RLU (Time 114.796 s): 362.533 RLU
- RLU (Time 116.796 s): 332.202 RLU
- RLU (Time 118.796 s): 323.517 RLU
- RLU (Time 120.796 s): 321.799 RLU
- RLU (Time 122.796 s): 311.834 RLU
- RLU (Time 124.796 s): 301.938 RLU
- RLU (Time 126.796 s): 306.062 RLU
- RLU (Time 128.796 s): 271.359 RLU
- RLU (Time 130.796 s): 275.474 RLU
- RLU (Time 132.796 s): 247.428 RLU
- RLU (Time 134.796 s): 253.899 RLU
- RLU (Time 136.796 s): 243.041 RLU
- RLU (Time 137.562 s): 220.326 RLU
- RLU (Time 143.562 s): 203.668 RLU
- RLU (Time 149.562 s): 176.37 RLU
- RLU (Time 155.562 s): 166.486 RLU
- RLU (Time 161.562 s): 168.826 RLU
- RLU (Time 167.562 s): 116.188 RLU
- RLU (Time 173.562 s): 124.68 RLU
- RLU (Time 179.562 s): 97.5703 RLU
- RLU (Time 185.562 s): 83.8515 RLU
- RLU (Time 191.562 s): 81.5894 RLU
- RLU (Time 197.562 s): 63.0668 RLU
- RLU (Time 203.562 s): 46.8203 RLU
- RLU (Time 209.562 s): 23.6957 RLU
- RLU (Time 215.562 s): 20.9611 RLU
- RLU (Time 221.562 s): 21.314 RLU
- RLU (Time 227.562 s): 32.3726 RLU
- RLU (Time 233.562 s): 4.71 RLU
- RLU (Time 239.562 s): 3.353 RLU
- RLU (Time 245.562 s): -15.0975 RLU
- RLU (Time 293.562 s): -21.0295 RLU
- RLU (Time 299.562 s): -10.1171 RLU
- RLU (calcium trace, sheet TAS2R1, Time 305.562 s): -21.932 RLU
- RLU (calcium trace, sheet TAS2R1, Time 311.562 s): -35.6948 RLU
- RLU (calcium trace, sheet TAS2R1, Time 317.562 s): -15.7818 RLU
- RLU (calcium trace, sheet TAS2R1, Time 323.562 s): -21.7457 RLU
- RLU (calcium trace, sheet TAS2R1, Time 329.562 s): -25.1818 RLU
- RLU (calcium trace, sheet TAS2R1, Time 335.562 s): -20.2182 RLU
- RLU (calcium trace, sheet TAS2R1, Time 341.562 s): 10.616 RLU
- RLU (calcium trace, sheet TAS2R1, Time 347.562 s): -20.1556 RLU
- RLU (calcium trace, sheet TAS2R1, Time 353.562 s): -12.0438 RLU
- RLU (calcium trace, sheet TAS2R1, Time 359.562 s): -31.063 RLU
- Δ F/F (conc. 0,01 mM, TAS2R1): 0.05863
- Δ F/F (conc. 0,03 mM, TAS2R1): 0.1201
- Δ F/F (conc. 0,0001 mM, TAS2R1): -0.003399
- Δ F/F (conc. 0,0003 mM, TAS2R1): 0.009061
- Δ F/F (conc. 0,001 mM, TAS2R1): 0.007937
- Δ F/F (conc. 0,003 mM, TAS2R1): 0.01609
- Activation threshold concentration TAS2R1 (lowest concentration with significantly increased fluorescence vs empty vector (p < 0.01)): 3 µM and 3.00 µM
Structure (SMILES): C[C@H](CCC(=O)O)[C@H]1CC[C@H]2[C@@H]3[C@@H](O)C[C@@H]4C[C@H](O)CC[C@]4(C)[C@H]3CC[C@]12C [Ursodeoxycholic Acid, ursodeoxycholic acid]
